Measured values published in US20260374754A1, “N-((ISOQUINOLIN-6-YL)METHYL)-1H-PYRAZOLE-4-CARBOXAMIDE DERIVATIVES AS PLASMA KALLIKREIN INHIBITORS FOR THE TREATMENT OF HEREDITARY ANGIODEMA” (Takeda Pharmaceutical Company Limited, priority 2022, published 2026).
pEC50: −log10 of the molar value. Structures can show the parent of a compound that is named as a salt.

target: human activated kallikrein enzyme (Homo sapiens, UniProt P03952); assay: Inhibition of human activated plasma kallikrein, fluorogenic PFR-AMC substrate, 500 pM enzyme format; assay type: biochemical; conditions: 500 pM activated kallikrein; 300 μM PFR-AMC; 30 min preincubation; 10 min room temperature; pH 7.5; read-out: Primary Dose Response Assay: Average EC50
How it was run: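 500 pM activated kallikrein preincubated 30 min at room temperature with inhibitors in pH 7.5 Tris/EDTA/NaCl buffer with PEG-400 and Triton X-100. Reaction started with 300 μM PFR-AMC, run 10 min at room temperature; AMC fluorescence read at ex 380/em 460 nm.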

human activated kallikrein enzyme, sequence (P03952 391-638 limits assumed): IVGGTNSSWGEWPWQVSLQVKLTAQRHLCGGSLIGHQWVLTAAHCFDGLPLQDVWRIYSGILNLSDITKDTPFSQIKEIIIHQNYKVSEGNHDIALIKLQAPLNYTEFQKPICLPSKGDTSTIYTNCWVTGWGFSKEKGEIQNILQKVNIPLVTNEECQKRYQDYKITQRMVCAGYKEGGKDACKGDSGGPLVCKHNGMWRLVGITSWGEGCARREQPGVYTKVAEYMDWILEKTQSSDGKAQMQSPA
human activated kallikrein enzyme, sequence (P03952 20-390 partner limits assumed): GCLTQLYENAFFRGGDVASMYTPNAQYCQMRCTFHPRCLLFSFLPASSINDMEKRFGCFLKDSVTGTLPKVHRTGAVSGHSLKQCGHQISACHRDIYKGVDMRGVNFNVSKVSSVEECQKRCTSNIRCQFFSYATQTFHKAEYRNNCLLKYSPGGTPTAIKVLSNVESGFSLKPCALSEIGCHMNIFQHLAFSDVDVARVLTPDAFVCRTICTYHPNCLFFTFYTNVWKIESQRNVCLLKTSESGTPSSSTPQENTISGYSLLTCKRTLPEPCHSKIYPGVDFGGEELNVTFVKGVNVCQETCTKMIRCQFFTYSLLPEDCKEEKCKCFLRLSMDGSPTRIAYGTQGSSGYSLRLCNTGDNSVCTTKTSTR

| Structure (SMILES) | pEC50 |
| --- | --- |
| Cc1cc2c(N)nccc2c(C)c1CNc1cc(NCc2ccc(Cn3ccccc3=O)cc2)ncn1 [Example 237, 1-(4-(((6-(((1-amino-5,7-dimethylisoquinolin-6-yl)methyl)amino)pyrimidin-4-yl)amino)methyl)benzyl)pyridin-2(1H)-one] | > 9.00 |
| Cc1cc2c(N)nccc2c(C)c1CNC(=O)c1cnn(Cc2ccc(CC(=O)NC34CC(C3)C4)cc2)c1 [Example 221, N-((1-amino-5,7-dimethylisoquinolin-6-yl)methyl)-1-(4-(2-(bicyclo[1.1.1]pentan-1-ylamino)-2-oxoethyl)benzyl)-1H-pyrazole-4-carboxamide] | 8.00 to 9.00 |
| COC(=O)C(c1cn2cc(C)ccc2n1)n1cc(C(=O)NCc2c(C)cc3c(N)nccc3c2C)cn1 (stereo not shown) [Example 14, methyl 2-(4-(((1-amino-5,7-dimethylisoquinolin-6-yl)methyl)carbamoyl)-1H-pyrazol-1-yl)-2-(6-methylimidazo[1,2-a]pyridin-2-yl)acetate] | 6.00 to 7.00 |
| Cc1cc2c(N)nccc2c(C)c1CNc1cc(NCc2ccc3ncc(F)cc3c2)ncn1 [Example 334, N^4-((1-amino-5,7-dimethylisoquinolin-6-yl)methyl)-N^6-((3-fluoroquinolin-6-yl)methyl)pyrimidine-4,6-diamine] | > 9.00 |
| Cc1cc2c(N)nccc2c(C)c1CNc1cc(NCc2ccc(CO)cc2)ncn1 [Example I-461, (4-(((6-(((1-amino-5,7-dimethylisoquinolin-6-yl)methyl)amino)pyrimidin-4-yl)amino)methyl)phenyl)methanol] | 8.00 to 9.00 |
| Cc1cc2c(N)nccc2c(C)c1CNC(=O)c1cnn(Cc2cccc(Cl)c2)c1 [Example 98, N-((1-amino-5,7-dimethylisoquinolin-6-yl)methyl)-1-(3-chlorobenzyl)-1H-pyrazole-4-carboxamide] | 7.00 to 8.00 |
| Cc1cc2c(N)nccc2c(C)c1CNC(=O)c1cnn(Cc2ccc(C(C)C(=O)N(C)C)cc2)c1 (stereo not shown) [Example 119, N-((1-amino-5,7-dimethylisoquinolin-6-yl)methyl)-1-(4-(1-(dimethylamino)-1-oxopropan-2-yl)benzyl)-1H-pyrazole-4-carboxamide] | > 9.00 |
| Cc1cc2c(N)nccc2c(C)c1CNC(=O)c1cnn(Cc2ccc(CC(=O)N3C[C@@H]4[C@H](C3)[C@@H]4C(=O)O)cc2)c1 [Example 210, (1R,5S,6s)-3-(2-(4-((4-(((1-amino-5,7-dimethylisoquinolin-6-yl)methyl)carbamoyl)-1H-pyrazol-1-yl)methyl)phenyl)acetyl)-3-azabicyclo[3.1.0]hexane-6-carboxylic acid] | 8.00 to 9.00 |
| Cc1cc2c(N)nccc2c(C)c1CNc1cc(OCc2ccc(Cn3ccccc3=O)cc2)cnn1 [Example 436, 1-(4-(((6-(((1-amino-5,7-dimethylisoquinolin-6-yl)methyl)amino)pyridazin-4-yl)oxy)methyl)benzyl)pyridin-2(1H)-one] | > 9.00 |
| Cc1cc2c(N)nccc2c(C)c1CNc1cc(OCc2cn3ccccc3n2)cnn1 [Example 411, 6-(((5-(imidazo[1,2-a]pyridin-2-ylmethoxy)pyridazin-3-yl)amino)methyl)-5,7-dimethylisoquinolin-1-amine] | 7.00 to 8.00 |
| Cc1cc2c(N)nccc2c(C)c1CNC(=O)c1cnn(Cc2ccc(CC(=O)N3CC4CC4(C(=O)O)C3)cc2)c1 (stereo not shown) [Example 216, 3-(2-(4-((4-(((1-amino-5,7-dimethylisoquinolin-6-yl)methyl)carbamoyl)-1H-pyrazol-1-yl)methyl)phenyl)acetyl)-3-azabicyclo[3.1.0]hexane-1-carboxylic acid] | 7.00 to 8.00 |
| Cc1cc2c(N)nccc2c(C)c1CNC(=O)c1cnn(Cc2ccc3ncc(O)cc3c2)c1 [Example 164, N-((1-amino-5,7-dimethylisoquinolin-6-yl)methyl)-1-((3-hydroxyquinolin-6-yl)methyl)-1H-pyrazole-4-carboxamide] | 8.00 to 9.00 |
| Cc1cc2c(N)nccc2c(C)c1CNC(=O)c1cnn(Cc2cn3cc(C4CC4)c(Cl)cc3n2)c1 [Example 147, N-((1-amino-5,7-dimethylisoquinolin-6-yl)methyl)-1-((7-chloro-6-cyclopropylimidazo[1,2-a]pyridin-2-yl)methyl)-1H-pyrazole-4-carboxamide] | > 9.00 |
| Cc1cc2c(N)nccc2c(C)c1CNc1cc(OCc2ccc(CN3CCOCC3=O)cc2)cnn1 [Example 434, 4-(4-(((6-(((1-amino-5,7-dimethylisoquinolin-6-yl)methyl)amino)pyridazin-4-yl)oxy)methyl)benzyl)morpholin-3-one] | > 9.00 |
| Cc1cc2c(N)nccc2c(C)c1CNC(=O)c1cnn(Cc2ccc(CC(=O)N3C(C)CCC3C)cc2)c1 (stereo not shown) [Example 218, N-((1-amino-5,7-dimethylisoquinolin-6-y1)methyl)-1-(4-(2-(2,5-dimethylpyrrolidin-1-yl)-2-oxoethyl)benzyl)-1H-pyrazole-4-carboxamide] | 8.00 to 9.00 |
| Cc1cc2c(N)nccc2c(C)c1CNc1cc(NCc2ccc3c(c2)N(C)C(=O)CO3)ncn1 [Example 327, 6-(((6-(((1-amino-5,7-dimethylisoquinolin-6-yl)methyl)amino)pyrimidin-4-yl)amino)methyl)-4-methyl-2H-benzo[b][1,4]oxazin-3(4H)-one, formic acid salt] | 8.00 to 9.00 |

| Structure (SMILES) | pEC50 |
| --- | --- |
| Cc1cc2nc(Cn3cc(C(=O)NCc4c(C)cc5c(N)nccc5c4C)cn3)cn2cc1C [Example 102, N-((1-amino-5,7-dimethylisoquinolin-6-yl)methyl)-1-((6,7-dimethylimidazo[1,2-a]pyridin-2-yl)methyl)-1H-pyrazole-4-carboxamide] | > 9.00 |
| Cc1cc2c(N)nccc2c(C)c1CNC(=O)c1cnn(Cc2ccc(CC(=O)N3C[C@@H]4[C@H](C)[C@@H]4C3)cc2)c1 [Example 205, N-((1-amino-5,7-dimethylisoquinolin-6-yl)methyl)-1-(4-(2-((1R,5S,6r)-6-methyl-3-azabicyclo[3.1.0]hexan-3-y1)-2-oxoethyl)benzyl)-1H-pyrazole-4-carboxamide] | > 9.00 |
| Cc1cc2c(N)nccc2c(C)c1CNc1cc(OCc2ccc3nccc(C)c3c2)cnn1 [Example 421, 5,7-dimethyl-6-(((5-((4-methylquinolin-6-yl)methoxy)pyridazin-3-yl)amino)methyl)isoquinolin-1-amine, formic acid] | 8.00 to 9.00 |
| COc1ccc(Cn2cc(C(=O)NCc3c(C)cc4c(N)nccc4c3C)cn2)cc1 [Example 91, N-((1-amino-5,7-dimethylisoquinolin-6-yl)methyl)-1-(4-methoxybenzyl)-1H-pyrazole-4-carboxamide] | 7.00 to 8.00 |
| Cc1cnc2cc(CNc3cc(NCc4c(C)cc5c(N)nccc5c4C)ncn3)ccc2c1 [Example 311, N^4-((1-amino-5,7-dimethylisoquinolin-6-yl)methyl)-N^6-((3-methylquinolin-7-yl)methyl)pyrimidine-4,6-diamine] | 8.00 to 9.00 |
| Cc1cc2c(N)nccc2c(C)c1CNC(=O)c1cnn(Cc2ccc(N(C)C(=O)N3CCCC3)cc2)c1 [Example 21, N-((1-amino-5,7-dimethylisoquinolin-6-yl)methyl)-1-(4-(N-methylpyrrolidine-1-carboxamido)benzyl)-1H-pyrazole-4-carboxamide] | 8.00 to 9.00 |
| Cc1cc2c(N)nccc2c(C)c1CNc1cc(OCc2cn3c(=O)n(C4CC4)ccc3n2)ncn1 [Example 397, 2-(((6-(((1-amino-5,7-dimethylisoquinolin-6-yl)methyl)amino)pyrimidin-4-yl)oxy)methyl)-6-cyclopropylimidazo[1,2-c]pyrimidin-5(6H)-one] | 7.00 to 8.00 |
| Cc1cc2c(N)nccc2c(C)c1CNc1cc(OCc2cn3cc(C(F)(F)F)ccc3n2)cnn1 [Example 424, 5,7-dimethyl-6-(((5-((6-(trifluoromethyl)imidazo[1,2-a]pyridin-2-yl)methoxy)pyridazin-3-yl)amino)methyl)isoquinolin-1-amine] | > 9.00 |
| Cc1cc(CNc2cc(NCc3c(C)cc4c(N)nccc4c3C)ncn2)cc(C)c1Cn1cccn1 [Example 367, N^4-(4-((1H-pyrazol-1-yl)methyl)-3,5-dimethylbenzyl)-N^6-((1-amino-5,7-dimethylisoquinolin-6-yl)methyl)pyrimidine-4,6-diamine] | > 9.00 |
| Cc1cc2c(N)nccc2c(C)c1CNc1cn2c(Cc3ccc4ccccc4c3)ncc2cn1 [Example 523, 5,7-dimethyl-6-(((3-(naphthalen-2-ylmethyl)imidazo[1,5-a]pyrazin-6-yl)amino)methyl)isoquinolin-1-amine] | < 6.00 |
| CC(=O)Nc1nccc2c(C)c(CNc3cc(OCc4ccc(Cn5cccn5)cc4)cnn3)c(C)cc12 [Example I-470, N-(6-(((5-((4-((1H-pyrazol-1-yl)methyl)benzyl)oxy)pyridazin-3-yl)amino)methyl)-5,7-dimethylisoquinolin-1-yl)acetamide] | 7.00 to 8.00 |
| Cc1cc2c(N)nccc2c(C)c1CNC(=O)c1cnn(Cc2ccc(C(F)(F)F)cc2)c1 [Example 93, N-((1-amino-5,7-dimethylisoquinolin-6-yl)methyl)-1-(4-(trifluoromethyl)benzyl)-1H-pyrazole-4-carboxamide] | 7.00 to 8.00 |
| CCOC(=O)Nc1nccc2c(C)c(CNC(=O)c3cnn(Cc4ccc5ncc(Cl)cc5c4)c3)c(C)cc12 [Example 132, ethyl (6-((1-((3-chloroquinolin-6-yl)methyl)-1H-pyrazole-4-carboxamido)methyl)-5,7-dimethylisoquinolin-1-yl)carbamate] | 7.00 to 8.00 |
| COc1ccc2cc(CN(C)c3cc(NCc4c(C)cc5c(N)nccc5c4C)ncn3)ccc2c1 [Example 318, N^4-((1-amino-5,7-dimethylisoquinolin-6-yl)methyl)-N^6_((6-methoxynaphthalen-2-yl)methyl)-N^6-methylpyrimidine-4,6-diamine] | 6.00 to 7.00 |
| Cc1cc2c(N)nccc2c(C)c1CNC(=O)c1cnn(Cc2cn3ccccc3n2)c1 [Example 53, N-((1-amino-5,7-dimethylisoquinolin-6-yl)methyl)-1-(imidazo[1,2-a]pyridin-2-ylmethyl)-1H-pyrazole-4-carboxamide] | 8.00 to 9.00 |
